Test results published in the NIST ThermoML archive (doi:10.1016/j.jct.2012.09.004).

Columns and labels:
[1] = Pendant drop shape
[2] = refractive index (Na D-line) (dimensionless); details: 101.33 kPa, Liquid, Standard Abbe refractometry
[3] = wn = mass fraction of the nth substance listed; details: Pendant drop shape, w2 = 0.1181
[4] = refractive index (Na D-line) (dimensionless); wn = mass fraction of the nth substance listed; details: 101 kPa, Liquid, Standard Abbe refractometry, w2 = 0.1181

CCCCCCCCCC(=O)[O-].CCCCCCCCCCCCCC[P+](CCCCCC)(CCCCCC)CCCCCC [trihexyltetradecylphosphonium decanoate]
Details	refractive index	surface tension liquid-gas [mN/m]
[1], 298 K	–	29
[1], 307.9 K	–	28.5
[1], 318 K	–	27.8
[1], 328.5 K	–	27.2
[1], 338 K	–	26.6
[1], 343 K	–	26.2
[2], 283.15 K	1.47754	–
[2], 288.15 K	1.47586	–
[2], 293.15 K	1.47413	–
[2], 298.15 K	1.47242	–
[2], 303.15 K	1.47069	–
[2], 308.15 K	1.46896	–
[2], 313.15 K	1.46722	–
[2], 318.15 K	1.46548	–
[2], 323.15 K	1.46341	–
[2], 328.15 K	1.46165	–
[2], 333.15 K	1.46002	–
[2], 338.15 K	1.45828	–
[2], 343.15 K	1.4566	–
[2], 348.15 K	1.45497	–
[2], 353.15 K	1.45327	–

CCCCCCCCCCCCCC[P+](CCCCCC)(CCCCCC)CCCCCC.CS(=O)(=O)[O-] [trihexyltetradecylphosphonium methanesulfonate] + O
Details	refractive index	surface tension liquid-gas [mN/m]
[3], 298.6 K	–	31.15
[3], 307.8 K	–	30.45
[3], 318 K	–	29.81
[3], 323.8 K	–	29.09
[3], 338.2 K	–	28.29
[3], 342.7 K	–	28.05
[4], 298.15 K	1.45621	–
[4], 303.15 K	1.4546	–
[4], 308.15 K	1.45281	–
[4], 313.15 K	1.45111	–
[4], 318.15 K	1.44947	–
[4], 323.15 K	1.44795	–
[4], 328.15 K	1.44655	–
[4], 333.15 K	1.44532	–
[4], 338.15 K	1.44427	–
[4], 343.15 K	1.44334	–
[4], 348.15 K	1.44253	–
[4], 353.15 K	1.44181	–

CCCCCCCCCCCCCC[P+](CCCCCC)(CCCCCC)CCCCCC.N#C[N-]C#N [tetradecyl(trihexyl)phosphonium dicyanamide]
Details	refractive index	surface tension liquid-gas [mN/m]
[1], 298.4 K	–	32.3
[1], 308 K	–	31.6
[1], 318 K	–	30.9
[1], 328.4 K	–	30.3
[1], 339.2 K	–	29.7
[1], 343.4 K	–	29.4
[2], 283.15 K	1.48861	–
[2], 288.15 K	1.48706	–
[2], 293.15 K	1.48545	–
[2], 298.15 K	1.48387	–
[2], 303.15 K	1.48228	–
[2], 308.15 K	1.48064	–
[2], 313.15 K	1.47902	–
[2], 318.15 K	1.47744	–
[2], 323.15 K	1.47585	–
[2], 328.15 K	1.47421	–
[2], 333.15 K	1.47252	–
[2], 338.15 K	1.4709	–
[2], 343.15 K	1.46926	–
[2], 348.15 K	1.46767	–
[2], 353.15 K	1.46599	–
